The source of these data is patent US7960435B2, “Anti-cancer agents and androgen inhibition activity compound” (University of Maryland, Baltimore, priority 2006, dated 2011).

For data set [1], the system named is LNCaP cells. The data set is described as follows: Cell growth inhibition (MTT colorimetric assay), LNCaP. The settings on record: for GI50: LNCaP (mutant AR), MTT, means of three experiments, called IC50, read-out: Cytotoxicity GI50 (nM) LNCaP. In kind it is cell-based, human. An excerpt: (§1) Lead optimization of BTB01434 and further biological studies: BTB01434 (Maybridge) was used as a lead molecule to synthesize new molecules. Although this compound was not as potent as some of the others (cf. Table 4), it was chosen for its ease of modification. New compounds (6-23) were developed using the diaryl sulfonamide compound BTB01434 (FIG. 6) as a scaffold. […] Including new BTB01434 analogs, including diaryl sulfonamide analogs bearing various substituents on the phenyl rings (series A), aryl amide analogs (series B), and amine analogs (series C). These new compounds were evaluated for cell growth inhibition in two human prostate cancer cell lines, (LNCaP and PC-3) by MTT assay. Based on the structures and anti-prostate cancer activities of the new compounds, a structure-activity relationship (SAR) was formulated.
Androgen-dependent LNCaP cells were obtained from American Type Culture Collection (Rockville, Md., USA). Cells were maintained in RPMI 1640 medium supplemented with 10% fetal bovine serum (Atlanta Biologicals, Lawrenceville, Ga., USA) and 1% penicillin/streptomycin. Cells were grown as a monolayer in T75 or T150 tissue culture flasks in a humidified incubator (5% CO2, 95% air) at 37° C.
(§2) LNCaP cells were seeded in 24 well plates (Corning Costar) at a density of 2×10^4 cells per well per 1 mL of medium. Cell were allowed to adhere to the plate for 24 hours and then treated with different concentrations of ARDAs dissolved in DMSO. Cells were treated for five days with renewal of ARDA and media on day 3. On the fifth day, medium was renewed and 100 μL of MTT (3-(4,5-dimethylthiazol-2-yl)-2,5-diphenyl-2H-tetrazolium bromide from Sigma) solution (0.5 mg MTT/mL of medium) was added to the medium such that the ratio of MTT:medium was 1:10. The cells were incubated with MTT for 2 hours. The medium was then aspirated and 500 μL of DMSO was added to solubilize the violet MTT-formazan product. The absorbance at 560 nm was measured by spectrophotometry (Victor 1420 multilabel counted, Wallac). For each concentration of ARDA there were triplicate wells in each independent experiment. IC50 values were calculated by nonlinear regression analysis using GraphPad Prism software.
(Tetrazolium assays rely on reduction of a dye to a coloured formazan, in cell work by metabolically active cells.)

Data set [2] relates to PC-3 cells. The data set can be described thus: Cell growth inhibition (MTT assay), PC-3. It is filed as cell-based, human. The settings on record: PC-3 (AR null), means of three experiments, called IC50, read-out: Cytotoxicity GI50 (nM) PC-3.
Description: as §1
Inhibition of prostate cancer cell proliferation and SAR: The exemplary compounds were then tested for their ability to inhibit cell viability in both the LNCaP (mutant AR) and PC-3 (AR null) cell lines (Table 5).
as §2

The target in data set [3] is T1, wild-type AR (Homo sapiens, UniProt P10275).
T1 construct: expressed in transfected cells; host or cells: PC-3 (stably transfected, PC-3-AR)
T1 sequence (P10275 1-920): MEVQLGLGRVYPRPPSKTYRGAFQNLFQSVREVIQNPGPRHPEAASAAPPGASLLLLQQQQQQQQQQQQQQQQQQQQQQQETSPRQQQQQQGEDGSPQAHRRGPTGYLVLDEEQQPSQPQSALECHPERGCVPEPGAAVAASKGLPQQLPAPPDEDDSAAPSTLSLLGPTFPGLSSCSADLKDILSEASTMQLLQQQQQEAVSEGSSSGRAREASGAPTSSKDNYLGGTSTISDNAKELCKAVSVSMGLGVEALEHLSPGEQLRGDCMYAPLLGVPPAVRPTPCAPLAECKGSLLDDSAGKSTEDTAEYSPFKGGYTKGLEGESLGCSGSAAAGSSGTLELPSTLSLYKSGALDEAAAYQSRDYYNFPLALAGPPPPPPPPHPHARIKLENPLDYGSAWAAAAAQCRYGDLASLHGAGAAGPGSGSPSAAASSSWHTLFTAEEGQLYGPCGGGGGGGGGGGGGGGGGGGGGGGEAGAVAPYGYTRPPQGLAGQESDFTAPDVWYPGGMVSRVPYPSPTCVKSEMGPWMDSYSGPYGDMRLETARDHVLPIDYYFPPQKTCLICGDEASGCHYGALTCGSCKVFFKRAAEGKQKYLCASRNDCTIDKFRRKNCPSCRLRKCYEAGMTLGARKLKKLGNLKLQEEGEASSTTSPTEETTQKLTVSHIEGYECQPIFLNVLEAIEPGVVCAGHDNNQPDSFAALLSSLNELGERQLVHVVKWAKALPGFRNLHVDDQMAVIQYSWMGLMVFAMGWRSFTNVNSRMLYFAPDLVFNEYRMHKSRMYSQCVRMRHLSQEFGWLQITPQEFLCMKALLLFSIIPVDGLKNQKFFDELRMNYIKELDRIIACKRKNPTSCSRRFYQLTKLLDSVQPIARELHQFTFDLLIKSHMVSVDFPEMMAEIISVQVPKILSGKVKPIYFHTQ
The data set can be described thus: Competitive androgen receptor binding with [3H]-R1881 in PC-3-AR cells. The note with it: for reduction of [3H]-R1881 binding: PC-3-AR cells. As to the method: In both cell lines, compounds 9 and 11 were able to effectively compete with labeled R1881 in a dose-dependent fashion (FIG. 11). In PC-3-AR cells compound II reduced [^3H]-R1881 binding by 65% and 80% at 10 μM and 20 μM, respectively. […] Compound 9 reduced [^3H]-R1881 binding by 50% and 65% at 10 μM and 20 μM, respectively, and was equipotent in both cell lines.
(§3) These assays were performed as previously described.^10

The subject of data set [4] is AR-mediated transcription (LNCaP-AR). The data set can be described thus: Luciferase transactivation assay in LNCaP cells transfected with ARR2-Luc. The note with it: for effect on luciferase activity, compound alone: without DHT. In kind it is cell-based, human. The method, then: FIG. 12. […] Cells in steroid-free medium were treated with vehicle, or increasing concentrations of either 9 or 11 with and without 5 nM DHT for 18 h. Cells were then assayed for luciferase activity using a know assay.^10
To determine if the compounds act as AR agonists or antagonists, androgen regulated transcriptional activation studies were performed in LNCaP cells transiently transfected with the probasin luciferase reported construct ARR2-Luc.
as §3

In data set [5] the test system is androgen receptor (AR). The data set can be described thus: AR protein expression down-regulation in LNCaP cells (Western blot). It is filed as cell-based, human. The method, then: All five known ARDAs (FIG. 1) were evaluated for their ability to decrease AR protein expression in a dose dependent manner and dose response curves were generated to determine their EC50 values.
These compounds were further evaluated to determine their EC50 values (from dose response curves).
For immunoblot detection of the AR, LNCaP cells were cultured as described above in T25 flasks. Cells were treated with various concentrations of ARDAs and whole cell lysates were prepared using lysis buffer containing 0.1M Tris, 0.5% Triton X-100, and protease inhibitor. Protein content was determined using the Bradford Assay (Bio-Rad, Hercules, Calif., USA). Protein was subjected to SDS-PAGE (10% acrylamide) and transferred onto nitrocellulose membrane. The blots were blocked overnight in 5% nonfat milk in PBS-T buffer at 4° C. Monoclonal antibody was used against the AR (AR441; sc-7305; Santa Cruz Biotechnology, Santa Cruz, Calif.; 1:500 dilution) at room temperature for one hour. Membranes were then incubated with a goat anti-mouse IgG secondary antibody conjugated to horseradish peroxidase (Bio-Rad cat #170-6516; 1:2000 dilution) at room temperature for one hour. Blots were rinsed with PBS-T between each step and specific bands were visualized by enhanced chemiluminescence (ECL; Amersham Biosciences, Arlington Heights, Ill., USA). Equivalent loading of samples was determined by reprobing membranes with β-actin (Calbiochem, USA). Protein expression was normalized to β-actin.
Background: In western blotting, separated proteins are transferred to a membrane and probed.

[6] abbreviates: decrease of AR protein expression, LNCaP cells, training set ARDAs (Table 1), read-out: EC50 values.
The mark [7] stands for this setting: AR down-regulation, LNCaP cells (Table 5), read-out: ARDA EC50.

Like-named read-outs stand apart in the source and are kept apart here.

As a reminder, the GI50 is the concentration that inhibits growth by half. As for `Cc1ccc(NS(=O)(=O)c2ccccc2)c(C(=O)O)c1` [Compound 10, 5-Methyl-2-[(phenylsulfonyl)amino]benzoic acid], in data set [1] (Homo sapiens, LNCaP), the GI50 stood at 18.2 nM.

On to `Cc1ccc(-c2nnn[nH]2)c(NS(=O)(=O)c2ccc(F)cc2)c1` [Compound 14, (2-(1H-1,2,3,4-tetrazole-5-yl)-5-methylphenyl)[(4-fluorophenyl)sulfonyl]amine], for which the GI50 in data set [1] (Homo sapiens, LNCaP) is more than 100000 nM; in data set [2] (Homo sapiens), more than 100000 nM.

As for `Cc1ccc(CNc2ccc(C)cc2)cc1` [Compound 21, (4-Methylphenyl) [(4-methylphenyl)methyl]amine], the GI50 in data set [1] (Homo sapiens, LNCaP) was 19000 nM; in data set [2] (Homo sapiens), 29500 nM.

Turning to `Cc1ccc(N(C)S(=O)(=O)c2ccc(C)cc2)cc1` [Compound 18, Methyl(4-methylphenyl)[(4-methylphenyl)sulfonyl]amine], the GI50 in data set [1] (Homo sapiens, LNCaP) was found to be 89200 nM; in data set [2] (Homo sapiens) it was 44700 nM.

For `Cc1ccc(S(=O)(=O)Nc2ccccc2)cc1` [Compound 16, [(4-Methylphenyl)sulfonyl]phenylamine], the GI50 in data set [1] (Homo sapiens, LNCaP) turned out to be 24000 nM; in data set [2] (Homo sapiens), 38900 nM.

Consider `Cc1ccc(NS(=O)(=O)c2ccc(F)cc2)c(C(=O)O)c1` [Compound 12, {[(4-fluorophenyl)sulfonyl]amino}-5-methylbenzoicacid], for which the GI50 was 10700 nM in data set [1] and more than 100000 nM in data set [2].

Take `Cc1ccc(NS(=O)(=O)c2ccc(C)cc2)cc1` [Compound 11, (4-Methylphenyl)[(4-methylphenyl)sulfonyl]amine]: the GI50 is 1.45 nM in data set [1] (Homo sapiens, LNCaP) and 30200 nM in data set [2] (Homo sapiens). Besides, the “greater inhibition of [3H]-R1881 binding to wild-type AR than to mutated receptor” value in data set [3] (10 μM and above) is recorded as “approximately 20%”. Further, the “reduction of [3H]-R1881 binding” value came out at 65% in data set [3] (10 μM) and 80% in data set [3] (20 μM). For the same molecule, the “effect on luciferase activity, compound alone” value in data set [4] (0.1 μM) and in data set [4] (10 μM) was “no effect” each time. Besides, in data set [4] (10 μM, with 5 nM DHT), the “reduction of luciferase expression in the presence of DHT” value is listed as 80%.

As to `Cc1ccc(NS(=O)(=O)c2ccccc2)c([N+](=O)[O-])c1` [Compound 8, (4-Methyl-2-nitrophenyl)(phenylsulfonyl)amine], the GI50 in data set [1] (Homo sapiens, LNCaP) stood at 2.95 nM; in data set [2] (Homo sapiens), 60200 nM.

Usually EC50 stands for the concentration at which the effect is half-maximal. For the molecule `O=C(O)c1ccccc1Nc1cccc(C(F)(F)F)c1` [Flufenamic acid (3), flufenamic acid], the half-maximal effective concentration (EC50) in data set [5] (setting [6]) was approximately 200 µM.

Turning to `Cc1ccc(NS(=O)(=O)c2ccccc2)cc1` [Compound 15, (4-methylphenyl)(phenylsulfonyl)amine], the 50% growth inhibitory concentration (GI50) in data set [1] (Homo sapiens, LNCaP) amounted to 21300 nM; in data set [2] (Homo sapiens) it was 13800 nM.

Turning to `COc1cc(/C=C/C(=O)CC(=O)/C=C/c2ccc(O)c(OC)c2)ccc1O` [Curcumin (4), curcumin], the concentration giving a half-maximal response (EC50) in data set [5] (setting [6]) came out at 35 µM.

As to `Cc1ccc(S(=O)(=O)Nc2ccccc2[N+](=O)[O-])cc1` [Compound 6, [(4-Methylphenyl)sulfonyl](2-nitrophenyl)amine], the EC50 in data set [5] (setting [7]) is more than 150 µM. For the same molecule, the GI50 in data set [1] (Homo sapiens, LNCaP) was 83 nM; in data set [2] (Homo sapiens), 50100 nM.

Take `O=S(=O)(Nc1ccccc1)c1ccccc1` [Compound 17, Phenyl(phenylsulfonyl)amine]: the GI50 was 53500 nM in data set [1] (Homo sapiens, LNCaP) and more than 100000 nM in data set [2] (Homo sapiens).

One may read the IC50 as the point on the concentration scale where inhibition reaches its midpoint. As to `Cc1ccc(S(=O)(=O)Nc2ccc(C)cc2[N+](=O)[O-])cc1` [BTB01434, reference compound], the concentration giving a half-maximal response (EC50) in data set [5] (setting [7]) turned out to be 76 µM; in data set [5] (LNCaP cells, database hits (Table 4), read-out: EC50 (μM), ability to down-regulate AR protein expression), 76 µM. Also, the 50% growth inhibitory concentration (GI50) turned out to be 39800 nM in data set [1] (Homo sapiens, LNCaP) and 43700 nM in data set [2] (Homo sapiens). Moreover, the half-maximal inhibitory concentration (IC50) in data set [1] (Homo sapiens, LNCaP cells (Table 4), read-out: IC50 (μM), effect on LNCaP cell viability) is 39.8 µM.

With `Cc1ccc(NCc2ccccc2)cc1` [Compound 23, (4-Methylphenyl)benzylamine], the GI50 was more than 100000 nM in data set [1] (Homo sapiens, LNCaP) and 52400 nM in data set [2] (Homo sapiens).

On to `C[C@]12CCC(=O)C[C@@H]1CC[C@@H]1[C@@H]2CC[C@]2(C)[C@@H](O)CC[C@@H]12` [DHT, dihydrotestosterone, reference compound], for which the “stimulation of luciferase activity” value in data set [4] (5 nM) is listed as “approximately 200 fold”.

Regarding `Cc1ccc(NC(=O)c2ccc(C)cc2)cc1` [Compound 19, (4-Methylphenyl)-N-(4-methylphenyl)carboxamide], the GI50 in data set [1] (Homo sapiens, LNCaP) turned out to be 55000 nM; in data set [2] (Homo sapiens), 26900 nM.

On to `Cc1ccc(C#N)c(NS(=O)(=O)c2ccc(F)cc2)c1` [Compound 13, 2-{[(4-fluorophenyl)sulfonyl]amino}-4-methylbenzenecarbonitrile], for which the GI50 was 30200 nM in data set [1] (Homo sapiens, LNCaP) and approximately 100000 nM in data set [2] (Homo sapiens).
